In the supplement of paper PMC10307832:

Assays:
Assay in all cases: relative viability (nuclei count vs DMSO), 5 days (fraction); higher = more cells survive
XMD14-99 + Trametinib = compound: CN1CCN(CC1)C2=CC(=C(C=C2)NC3=NC(=C(S3)C(=O)C4=C(C=CC=C4Cl)Cl)N)OC [XMD14-99] + CC(=O)Nc1cccc(-n2c(=O)n(C3CC3)c(=O)c3c(Nc4ccc(I)cc4F)n(C)c(=O)c(C)c32)c1 [Trametinib] (partner 0.02 µM)
Outline: (§1)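 Values are medians from duplicate plates. Each reflects relative viability, defined as the nuclei count of treated wells over that of vehicle wells. Lung cancer cell lines in 1536-well plates were pin-tool dosed one day after seeding with one drug alone or with a fixed anchor-drug dose plus five library-drug doses (not always all listed) in √10 steps, then fixed, stained and imaged at 4× after 5 days.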

XMD14-99 + Linsitinib = compound: CN1CCN(CC1)C2=CC(=C(C=C2)NC3=NC(=C(S3)C(=O)C4=C(C=CC=C4Cl)Cl)N)OC [XMD14-99] + C[C@]1(O)C[C@@H](c2nc(-c3ccc4ccc(-c5ccccc5)nc4c3)c3c(N)nccn32)C1 [Linsitinib] (partner 1 µM)
Outline: as §1

XMD14-99 + Dasatinib = compound: CN1CCN(CC1)C2=CC(=C(C=C2)NC3=NC(=C(S3)C(=O)C4=C(C=CC=C4Cl)Cl)N)OC [XMD14-99] + Cc1nc(Nc2ncc(C(=O)Nc3c(C)cccc3Cl)s2)cc(N2CCN(CCO)CC2)n1 [Dasatinib] (partner 0.075 µM)
Outline: as §1

XMD14-99 + Navitoclax = compound: CN1CCN(CC1)C2=CC(=C(C=C2)NC3=NC(=C(S3)C(=O)C4=C(C=CC=C4Cl)Cl)N)OC [XMD14-99] + CC1(C)CCC(c2ccc(Cl)cc2)=C(CN2CCN(c3ccc(C(=O)NS(=O)(=O)c4ccc(N[C@H](CCN5CCOCC5)CSc5ccccc5)c(S(=O)(=O)C(F)(F)F)c4)cc3)CC2)C1 [Navitoclax] (partner 0.5 µM)
Outline: as §1

XMD14-99 + Palbociclib = compound: CN1CCN(CC1)C2=CC(=C(C=C2)NC3=NC(=C(S3)C(=O)C4=C(C=CC=C4Cl)Cl)N)OC [XMD14-99] + CC(=O)c1c(C)c2cnc(Nc3ccc(N4CCNCC4)cn3)nc2n(C2CCCC2)c1=O [Palbociclib] (partner 0.5 µM)
Outline: as §1

Cell Line | relative viability (XMD14-99 + Trametinib; first compound 0.08 µM) | relative viability (XMD14-99 + Trametinib; first compound 0.8 µM) | relative viability (XMD14-99 + Trametinib; first compound 2.53 µM) | relative viability (XMD14-99 + Trametinib; first compound 8 µM) | relative viability (XMD14-99 + Linsitinib; first compound 0.08 µM) | relative viability (XMD14-99 + Linsitinib; first compound 0.8 µM) | relative viability (XMD14-99 + Linsitinib; first compound 2.53 µM) | relative viability (XMD14-99 + Linsitinib; first compound 8 µM) | relative viability (XMD14-99 + Dasatinib; first compound 0.08 µM) | relative viability (XMD14-99 + Dasatinib; first compound 0.8 µM) | relative viability (XMD14-99 + Dasatinib; first compound 2.53 µM) | relative viability (XMD14-99 + Dasatinib; first compound 8 µM) | relative viability (XMD14-99 + Navitoclax; first compound 0.08 µM) | relative viability (XMD14-99 + Navitoclax; first compound 0.8 µM) | relative viability (XMD14-99 + Navitoclax; first compound 2.53 µM) | relative viability (XMD14-99 + Navitoclax; first compound 8 µM) | relative viability (XMD14-99 + Palbociclib; first compound 0.08 µM) | relative viability (XMD14-99 + Palbociclib; first compound 0.8 µM) | relative viability (XMD14-99 + Palbociclib; first compound 2.53 µM) | relative viability (XMD14-99 + Palbociclib; first compound 8 µM)
HCC-366 | 0.424 | 0.309 | 0.377 | 0.261 | 0.619 | 0.641 | 0.781 | 0.602 | 0.596 | 0.609 | 0.603 | 0.528 | 1.01 | 1.03 | 0.986 | 0.863 | 0.452 | 0.383 | 0.346 | 0.306
HCC-827 | 0.539 | 0.529 | 0.542 | 0.432 | 0.991 | 0.86 | 0.828 | 0.802 | 0.322 | 0.281 | 0.309 | 0.256 | 1.06 | 0.99 | 0.793 | 0.873 | 0.506 | 0.406 | 0.451 | 0.446
HOP-62 | 0.382 | 0.419 | 0.412 | 0.368 | 0.965 | 0.894 | 0.794 | 0.894 | 0.635 | 0.658 | 0.656 | 0.496 | 1.12 | 1.16 | 1.03 | 0.951 | 0.435 | 0.41 | 0.538 | 0.443
LC-2-ad | 0.956 | 0.88 | 0.998 | 0.873 | 0.892 | 0.817 | 0.83 | 0.563 | 0.541 | 0.643 | 0.535 | 0.476 | 0.533 | 0.386 | 0.273 | 0.295 | 0.525 | 0.446 | 0.466 | 0.487
LCLC-97TM1 | 0.172 | 0.229 | 0.208 | 0.18 | 0.162 | 0.157 | 0.141 | 0.176 | 0.837 | 0.766 | 0.73 | 0.559 | 0.43 | 0.455 | 0.268 | 0.382 | 0.197 | 0.239 | 0.321 | 0.203
LK-2 | 0.571 | 0.738 | 0.706 | 0.646 | 0.398 | 0.369 | 0.659 | 0.471 | 0.279 | 0.214 | 0.281 | 0.204 | 0.767 | 0.883 | 1.02 | 0.91 | 0.572 | 0.804 | 0.655 | 0.611
LOU-NH91 | 0.865 | 0.829 | 0.793 | 0.762 | 0.963 | 1 | 0.924 | 0.865 | 0.591 | 0.584 | 0.541 | 0.472 | 0.662 | 0.758 | 0.685 | 0.613 | 0.509 | 0.548 | 0.575 | 0.499
LU99A | 0.559 | 0.61 | 0.512 | 0.394 | 0.511 | 0.396 | 0.488 | 0.425 | 0.655 | 0.526 | 0.464 | 0.305 | 0.766 | 0.776 | 0.786 | 0.725 | 0.382 | 0.415 | 0.396 | 0.328
LXF-289 | 0.632 | 0.639 | 0.611 | 0.529 | 0.894 | 0.926 | 0.939 | 0.798 | 0.238 | 0.173 | 0.208 | 0.204 | 0.903 | 0.913 | 0.884 | 0.836 | 0.625 | 0.571 | 0.55 | 0.575
NCI-H23 | 0.487 | 0.326 | 0.47 | 0.364 | 0.516 | 0.617 | 0.59 | 0.527 | 0.787 | 0.777 | 0.724 | 0.636 | 0.782 | 0.874 | 0.744 | 0.748 | 0.519 | 0.541 | 0.529 | 0.454
NCI-H322M | 0.491 | 0.565 | 0.593 | 0.521 | 0.903 | 0.959 | 0.951 | 0.845 | 0.275 | 0.252 | 0.257 | 0.248 | 1.15 | 1.27 | 1.33 | 1.08 | 0.449 | 0.523 | 0.472 | 0.514
NCI-H441 | 0.523 | 0.436 | 0.389 | 0.263 | 0.719 | 0.52 | 0.528 | 0.382 | 0.537 | 0.493 | 0.463 | 0.504 | 0.575 | 0.556 | 0.724 | 0.569 | 0.223 | 0.19 | 0.225 | 0.22
NCI-H460 | 0.32 | 0.228 | 0.126 | 0.089 | 0.685 | 0.77 | 0.61 | 0.331 | 0.497 | 0.545 | 0.475 | 0.475 | 1.06 | 1.02 | 1.03 | 0.767 | 0.156 | 0.21 | 0.164 | 0.12
NCI-H520 | 0.656 | 0.747 | 0.745 | 0.437 | 1.08 | 0.972 | 1 | 0.657 | 0.171 | 0.21 | 0.176 | 0.169 | 0.992 | 1.1 | 1.12 | 1.01 | 0.174 | 0.186 | 0.239 | 0.222
NCI-H647 | 0.456 | 0.495 | 0.582 | 0.442 | 1.25 | 1.12 | 1.27 | 0.929 | 0.12 | 0.216 | 0.202 | 0.167 | 1.08 | 1.19 | 1.16 | 0.974 | 0.408 | 0.459 | 0.505 | 0.364
